The results in this text go back to patent US20170181971A1, “Nanoparticle- and Drug-Containing Polymersomes for Medical Applications” (Northeastern University, priority 2014, published 2017).

For the test, the system named is ampicillin-resistant E. coli. Description: Bacterial growth curve (OD600 for 24 hours) after treatment. In kind it is cell-based. As for the experimental part: Bacteria transformation. First, an overnight suspension of E. coli cells (strain K-12 HB101; Bio-Rad, Hercules, Calif.) was pelleted by centrifugation and re-suspended in 250 μL of cold 50 mM calcium chloride (Sigma-Aldrich, St. Louis, Mo.) and placed in an ice bath. After 15 minutes on ice, 10 μg of the plasmid DNA was added, and the cells were returned to the ice bath for an additional 15 minutes. The cells were then heat shocked by placing them in a 42° C. water bath for exactly 45 seconds and then rapidly transferring them back to the ice bath for 2 minutes. This solution was then mixed with 750 μL of Lysogeny broth (LB, Sigma-Aldrich, St. Louis, Mo.). Finally, the complete transformed bacteria solution was streaked for inoculation on a LBagar plate containing 100 μg mL−1 of ampicillin and allowed to incubate overnight at 37° C.
Bacterial interactions. For each experimental trial, a single bacterial colony was selected and grown overnight in LB on a shaking incubator set at 200 rpm and 37° C. […] 100 μL of the bacterial suspension was then combined with varying AgPs treatment concentrations or controls in a 96 well plate. The final treatment volume in each well was brought up to 100 μL using 0.01 M PBS (e.g. 100 μL treatment +0 μL PBS, 90 μL treatment+10 μL PBS, 80 μL treatment+20 μL PBS, etc.). Control treatments were given 100 μL of PBS to keep the media dilution consistent. […]

In the case of `CC1(C)S[C@@H]2[C@H](NC(=O)[C@H](N)c3ccccc3)C(=O)N2[C@H]1C(=O)O` [free ampicillin, ampicillin], the “bacteriostatic action (delay in time to reach exponential growth phase)” value (10^6 CFU mL^−1, OD600 for 24 hours) was “no bacteriostatic effect”. Moreover, the “difference in bacterial growth between control treatments (incl. PBS)” value (ampicillin at 200 μg mL^−1, FIG. 7G) is reported as “no significant differences”.
